Data set [1] concerns Septoria tritici. In words: In vivo test on Septoria tritici (leaf spot of wheat), preventive spray. The following applies: Zymoseptoria tritici; dose of 500 g/ha; wheat plants (Scipion variety); contaminated 24 hours after treatment; grading 15 to 20 days after contamination vs control plants; read-out: good (at least 50%) protection. As to the method: (§1) An aqueous suspension, at a concentration of 1.5%, of the active material tested is obtained by grinding it finely in a formulation of concentrated suspension type. This aqueous suspension is then diluted in water so as to obtain the desired active material concentration. Wheat plants (Scipion variety) in starter cups, sown on a 50/50 peat soil-pozzolana substrate and grown at 12° C., are treated at the 1-leaf stage (10 cm tall) by spraying with the aqueous suspension described above. Plants, used as controls, are treated with an aqueous solution not containing the active material.
After 24 hours, the plants are contaminated by spraying them with an aqueous suspension of Septoria tritici spores (500,000 spores per mL). The spores are collected from a 15-day-old culture and are suspended in a nutrient solution composed of: • 1.5 g/L of gelatine • 0.5 g/L of sodium oleate • 24 g/L of PDB
The contaminated wheat plants are incubated for 72 hours at about 20° C. and at 100% relative humidity, and then for 15 days at 80% relative humidity.

Data set [2] deals with Drechslera teres. Briefly: In vivo test on Drechslera teres (barley net blotch), preventive spray. The following applies: Pyrenophora teres, 288 h; dose of 500 g/ha; barley plants (Express variety); contaminated 24 hours after treatment; grading 12 days after contamination vs control plants; read-out: good (at least 50%) protection. Here is the method: An aqueous suspension, at a concentration of 1.5%, of the active material. tested is obtained by grinding it finely in a formulation of concentrated suspension type. This aqueous suspension is then diluted in water so as to obtain the desired active material concentration. Barley plants (Express variety) in starter cups, sown on a 50/50 peat soil-pozzolana substrate and grown at 12° C., are treated at the 1-leaf stage (10 cm tall) by spraying with the aqueous suspension described above. Plants, used as controls, are treated with an aqueous solution not containing the active material.
After 24 hours, the plants are contaminated by spraying them with an aqueous suspension of Dreschslera teres spores (12,000 spores per mL). The spores are collected from a 12-day-old culture. The contaminated wheat plants are incubated for 24 hours at about 20° C. and at 100% relative humidity, and then for 12 days at 80% relative humidity.
Grading is carried out 12 days after the contamination, in comparison with the control plants. Under these conditions, good (at least 50%) protection is observed, at a dose of 500 g/ha, with the compounds described as example: 9, 13, 14, 15, 18, 20, 21, 22, 24, 26, 27, 30, 31, 32, 33, 34, 35, 36, 37, 41, 43, 45, 47, 49, 62, 69, 70, 72.

The subject of data set [3] is Erisyphe graminis f. sp. tritici. In words: In vivo test on Erisyphe graminis f. sp. tritici (powdery mildew of wheat), preventive spray. The following applies: Triticum aestivum; dose of 500 g/ha; wheat plants (Audace variety); contaminated 24 hours after treatment; grading 7 to 14 days after contamination vs control plants; read-out: good (at least 50%) or total protection. As to the method: as §1, with “(Audace” for “(Scipion”, “on” for “on a”, “soil-pozzulana” for “soil-pozzolana”, “material. After 24 hours, the plants are contaminated by dusting them with Erisyphe graminis f. sp. tritici spores, the dusting being carried out using diseased plants.” for “material.”

The test system of data set [4] is Puccinia recondita. Briefly: In vivo test on Puccinia recondita (wheat brown rust), preventive spray. The following applies: 240 h, dose of 500 g/ha, wheat plants (Scipion variety), contaminated 24 hours after treatment, grading 10 days after contamination vs control plants, read-out: good (at least 50%) protection. As to the method:
An aqueous suspension, at a concentration of 1.5%, of the active material tested is obtained by grinding it finely in a formulation of concentrated suspension type, This aqueous suspension is then diluted in water so as to obtain the desired active material concentration. Wheat plants (Scipion variety) in starter cups, sown on a 50/50 peat soil-pozzolana substrate and grown at 12° C., are treated at the 1-leaf stage (10 cm tall) by spraying with the aqueous suspension described above. Plants, used as controls, are treated with an aqueous solution not containing the active material.
After 24 hours, the plants are contaminated by spraying them with an aqueous suspension of Puccinia recondita spores (150,000 spores per mL). The contaminated wheat plants are incubated for 24 hours at about 20° C. and at 100% relative humidity, and then for 10 days at 70% relative humidity.
Grading is carried out 10 days after the contamination, in comparison with the control plants. Under these conditions, good (at least 50%) protection is observed, at a dose of 500 g/ha, with the following compounds described as example: 6, 10, 11, 12, 13, 14, 15, 28, 29, 30, 31, 34, 37, 42, 45, 46, 50, 51, 52, 62, 72.

The test system of data set [5] is Rhynchosporium secalis. In words: In vivo test on Rhynchosporium secalis (barley leaf scald), preventive spray. The following applies: dose of 500 g/ha; barley plants (Express or Barrack variety); contaminated 24 hours after treatment; grading 12/14 days after contamination vs control plants. As to the method:
An aqueous suspension, at a concentration of 1.5%, of the active material tested is obtained by grinding it finely in a formulation of concentrated suspension type. This aqueous suspension is then diluted in water so as to obtain the desired active material concentration. Barley plants (Express or Barrack variety) in starter cups, sown on a 50/50 peat soil-pozzolana substrate and grown at 12° C., are treated at the 1-leaf stage (10 cm tall) by spraying with the aqueous suspension described above. Plants, used as controls, are treated with an aqueous solution not containing the active material.
After 24 hours, the plants are contaminated by spraying them with an aqueous suspension of Rhynchosporium secalis spores (800,000 spores per mL). The contaminated wheat plants are incubated for 48 hours at about 20° C. and at 100% relative humidity, and then for 12/14 days at 80% relative humidity.
Grading is carried out 12/14 days after the contamination, in comparison with the control plants. Under these conditions, good (at least 50%) protection is observed, at a dose of 500 g/ha, with the following compound described as example: 32.

Bounds are passed on as bounds.

For the compound `CCCCOc1ccc(NC(=O)c2c(O)c(N)cn2C)cc1` [compound 9, 1-Methyl-4-amino-3-hydroxy-1H-N-(4-butoxy-phenyl)pyrrole-2-carboxamide], the pest or weed control at 500 g/ha in data set [1] and in data set [2] was no less than 50% in each case.
Take `COc1c(C(=O)Nc2ccc(Oc3ccc(C(F)(F)F)cc3)cc2)cn(C)c1C(=O)O` [compound 13, 1-methyl-2-hydroxycarbonyl-3-methoxy-1H-N-para-[4-(trifluoromethyl)phyenoxy]phenyl-pyrrole-4-carboxamide]: the pest or weed control at 500 g/ha in data set [3], in data set [4] and in data set [2] was no less than 50% in each case.
Turning to `COc1c(C(=O)Nc2ccc(Oc3ccc(C(F)(F)F)cc3)cc2)cn(C)c1N` [compound 14, 1-methyl-2-amino-3-methoxy-1H-N-para-[4-(trifluoromethyl)phenoxy]phenyl-pyrrole-4-carboxamide], the pest or weed control at 500 g/ha in data set [3], in data set [4] and in data set [2] was no less than 50% throughout.
For the compound `CCOC(=O)c1c(O)c(C(=O)Nc2ccc(Oc3ccc(C(F)(F)F)cc3)cc2)cn1C` [compound 15, 1-methyl-2-ethoxycarbonyl-3-hydroxy-1H-N-para-[4-(trifluoromethyl)phenoxy]phenyl-pyrrole-4-carboxamide], the pest or weed control at 500 g/ha in data set [3], in data set [4], in data set [1] and in data set [2] was no less than 50% throughout.
`Nc1noc(C(=O)Nc2ccc(Oc3ccc(C(F)(F)F)cc3)cc2)c1O` [compound 32, 3-Amino4-hydroxy-N-para-[4-(trifluoromethyl)phenoxy]phenylisoxazole-5-carboxamide]: the pest or weed control at 500 g/ha in data set [3], in data set [1] and in data set [2] was no less than 50% each time. Also, the “good (at least 50%) protection” value in data set [5] is “at least 50%”.
On to `Nc1cncc(C(=O)Nc2ccc(Oc3cccc(C(F)(F)F)c3)cc2)c1O` [compound 45, 5-amino-4-hydroxy-N-para-[3-(trifluoromethyl)phenoxy]phenyl nicotinamide], for which the pest or weed control at 500 g/ha in data set [3], in data set [4], in data set [1] and in data set [2] was no less than 50% each time.
On to `COC(=O)c1cncc(C(=O)Nc2ccc(Oc3ccc(C(F)(F)F)c(Cl)c3)cc2)c1OC` [compound 49, 5-methoxycarbonyl-4-methoxy-N-para-[3-chloro-4-(trifluoromethyl)phenoxy]phenyl nicotinamide], for which the pest or weed control at 500 g/ha in data set [3], in data set [1] and in data set [2] was no less than 50% each time.
The melting point is the temperature of the solid-liquid transition. For `CCCCOc1ccc(NC(=O)c2occc(=O)c2O)cc1` [compound 59, N-(4-Butyloxy-phenyl)-2-(3-hydroxy-γ-pyranone)-carboxamide], the melting point lay within 203 to 204 °C. The pest or weed control at 500 g/ha in data set [3] was no less than 50%. Also, the pest or weed control at 500 g/ha in data set [1] was no less than 50%.
In the case of `CC(C)N1CC(C(=O)Nc2ccc(Oc3ccccc3)cc2)=C(O)C1=O` [compound 72, N-4-(phenoxy)phenyl-(1-N-isopropyl-4-hydroxy-5-dioxo-2,5-dihydro-1H)-pyrrol-3-carboxamide], the pest or weed control at 500 g/ha in data set [4], in data set [1] and in data set [2] was no less than 50% each time.

Source of the values: patent publication US7084163B2, “Heterocyclic carboxamides and their use as fungicides” (Bayer Cropscience S.A., priority 2001, dated 2006).
